Measured values as given in patent publication US4648996A, “Phenyl substituted-2,4,6,8-nonatetraenoic acid” (Hoffmann-La Roche Inc., priority 1985, dated 1987).

How the values were obtained:
in vivo = conditions: mouse
Description: The compounds of formulae I and II and salts thereof can be utilized to treat patients suffering from rheumatoid arthritis and related disorders.

[1] = test system: adjuvant arthritis in the rat; experiment: Developing adjuvant arthritis in the rat; type: in vivo, AHH/R Female rats (PVG derived); conditions: for Joint Mobility (% INC) / Lesion Score (% RDN): day 15; for % reduction of paw swelling, Primary (right): days 0-4; for % reduction of paw swelling, Secondary (left) / % reduction of paw swelling, Secondary (right): days 8-15
Protocol: AHH/R Female rats (PVG derived with an initial weight range of 110 to 140 g. were used.
Adjuvant for injection. An homogenized suspension of heat killed M tuberculosis (Human strains C, DT and PN), 5 mg.Ml^-1 in liquid paraffin was prepared.
Rats were randomly split into groups of five and adjuvant arthritis was induced by the sub-plantar injection of 0.1 ml of adjuvant suspension into the right hind paw of each rat. Test compounds were administered by intubation each morning commencing the day of adjuvant injection. Two groups of control rats were dosed with the vehicle as was a group of three normal rats included for comparative purposes. Dosing was carried out daily until the end of the test on day 15 except for the first weekend (days 5 & 6). Treatment groups are shown in Table III and include etretinate as standard retinoid.
Measurements of right hind paw volume were made initially and on days 2 and 4 after and adjufant injection (primary phase). Right and left hind paw volume were then measured, on day 8 and every two or three days until the end of the experiment on day 15 (secondary phase). At this time the mobility of each ankle joint and the incidence and severity of secondary lesions on nose, ears, forepaws, left hind paw and tail were also assessed in terms of degrees of flexion possible and by using an arbitrary scoring system, respectively.
The time course curves for the injected paws were integrated from days 0 to 4 to reflect primary swelling and from days 8 to 15 (secondary swelling). The secondary swelling in the non-injected paw was integrated similarly from days 8 to 15. Calculations were carried out using a specific computer program which computed mean ± se for each integrated area. The significance of differences from controls was determined by Student's t test (2 tailed) and percentage reductions from control areas were calculated. Percentage improvements in joint mobility and percentage reductions in lesion score were also determined. In the latter case the Wilcoxon rank sum test (2 tailed) was used to express the difference from the control score using raw data. Mean body weight change in each group was recorded.

[2] = test system: carrageenan pleurisy in rats; experiment: Non-immune inflammation, 4 hr carrageenan pleurisy; type: in vivo, Female Alderley Park Strain 1 rats; conditions: 10 days
Protocol: Female Alderley Park Strain 1 rats weighing 170-205 g. at the start of the experiment were used.
Lambda-carrageenan. Prepared as a solution in saline and sterilized by autoclaving.
Compound A was administered orally to groups of 8 rats once daily for 10 days at doses of 10, 30 and 100 mg.kg^-1. Control animals received the vehicle. One hour after the last dose the animals were anesthetised with methohexitone (Brietal, 50 mg.kg^-1) and 0.2 ml of 1% lambda carrageenan was injected into the pleural cavity. Four hours later the animals were killed with an overdose of pentobarbitone (Sagatal), the pleural exudate was collected and the pleural cavity was washed out with 2 ml of phosphate-buffered saline (PBS-A, Oxoid). The exudate volume was recorded and cell counts were determined using an automatic cell counter (Coulter). Differential cell counts were performed on exudate smears stained with Giemsa stain in order to determine separately the numbers of polymorphonuclear leucocytes (PMN) and mononuclear cells (MN).
Immediately after recovery of the pleural exudates the tibiae of the animals were excised and their breaking strains were determined.
The body weights of the animals were recorded daily. Statistical analyses were performed using Student's two-tailed t test.

[3] = test system: impregnated sponge granuloma in the rat; experiment: Impregnated sponge granuloma test in the rat; type: in vivo, AHH/R female rats (PVG derived)
Protocol: AHH/R female rats (PVG derived) with an initial weight range of 120-140 g. were used.
Sponge preparation. Pellets (6.5 mm diameter) were punched from cellulose sponge cloth ("Wettex") and 0.1 ml. of a suspension containing 0.5 mg.ml^-1 of heat killed M. tuberculosis (human strains C, DT and PN) in sterile saline was applied to each pellet. The pellets were dried, weighed and autoclaved.
Rats were randomly divided into groups of five and daily dosing with test compounds was commenced. After the fifth dose the rats were anaesthetised with Sagatal (45 mg.kg^-1 i.p.) the backs were shaved and two pellets were implanted subcutaneously (one each side) into each rat through a small dorsal midline incision. The incision was closed and the rats allowed to recover from the anaesthetic.
Seven days after implantation the rats were killed and the pellets were removed, dissected free of extraneous tissue and weighed. Each pellet was then placed in a 4 ml aliquot of distilled water, chopped with fine scissors and sonicated. After centrifugation the Na^+ and K^+ content of the supernatant was determined by flame photometry. In addition the adrenal and thumus glands from each rat were dissected out and weighed and the lower hind limbs were removed for measurement of tibial bone breaking strain. Body weights were also recorded throughout the test period.
The mean ± SE for each of the parameters was calculated and differences from the control values were determined by Student's t test (2-tailed). Percentage reductions of granuloma weight, Na^+ and K^+ content and percentage changes of adrenal and thymus, weight and tibial breaking strain were determined.

SMILES: CCCCCCCCCOc1ccccc1/C=C/C(C)=C/C=C/C(C)=C/C(=O)O [Compound A, All(E)-9-[2(nonyloxy)phenyl]-3,7-dimethyl-2,4,6,8-nonatetraenoic acid]
- LD50 (in vivo; ip): > 1000 mg/kg
- LD50 (in vivo; po): > 1000 mg/kg
- Joint Mobility (% INC) ([1]; 15 mg.kg^-1 p.o.): 66%
- Lesion Score (% RDN) ([1]; 15 mg.kg^-1 p.o.): 72%
- % reduction of paw swelling, Primary (right) ([1]; 15 mg.kg^-1 p.o.): -6%
- % reduction of paw swelling, Secondary (left) ([1]; 15 mg.kg^-1 p.o.): 94%
- % reduction of paw swelling, Secondary (right) ([1]; 15 mg.kg^-1 p.o.): 30%
- Joint Mobility (% INC) ([1]; 45 mg.kg^-1 p.o.): 66%
- Lesion Score (% RDN) ([1]; 45 mg.kg^-1 p.o.): 65%
- % reduction of paw swelling, Primary (right) ([1]; 45 mg.kg^-1 p.o.): 16%
- % reduction of paw swelling, Secondary (left) ([1]; 45 mg.kg^-1 p.o.): 75%
- % reduction of paw swelling, Secondary (right) ([1]; 45 mg.kg^-1 p.o.): 51%
- Exudate Volume ([2]; 10 mg per kg per day p.o.): 0.94 mL
- Exudate Volume % change ([2]; 10 mg per kg per day p.o.): -32.8%
- Tibial Breaking Strain (Right + Left) % change ([2]; 10 mg per kg per day p.o.): -3.4%
- Tibial Breaking Strain (Right + Left) Mean ([2]; 10 mg per kg per day p.o.): 6.5 kg
- Total Cell Count ([2]; 10 mg per kg per day p.o.): 120.8 ×10^6
- Total Cell Count % change ([2]; 10 mg per kg per day p.o.): -6.5%
- Total MN ([2]; 10 mg per kg per day p.o.): 8.4 ×10^6
- Total MN % change ([2]; 10 mg per kg per day p.o.): -17.4%
- Total PMN ([2]; 10 mg per kg per day p.o.): 112.4 ×10^6
- Total PMN % change ([2]; 10 mg per kg per day p.o.): -5.6%
- Exudate Volume ([2]; 30 mg per kg per day p.o.): 0.88 mL
- Exudate Volume % change ([2]; 30 mg per kg per day p.o.): -36.9%
- Tibial Breaking Strain (Right + Left) % change ([2]; 30 mg per kg per day p.o.): +1.5%
- Tibial Breaking Strain (Right + Left) Mean ([2]; 30 mg per kg per day p.o.): 6.8 kg
- Total Cell Count ([2]; 30 mg per kg per day p.o.): 112.1 ×10^6
- Total Cell Count % change ([2]; 30 mg per kg per day p.o.): -13.3%
- Total MN ([2]; 30 mg per kg per day p.o.): 7.9 ×10^6
- Total MN % change ([2]; 30 mg per kg per day p.o.): -23.1%
- Total PMN ([2]; 30 mg per kg per day p.o.): 104.2 ×10^6
- Total PMN % change ([2]; 30 mg per kg per day p.o.): -12.4%
- Exudate Volume ([2]; 100 mg per kg per day p.o.): 0.80 mL
- Exudate Volume % change ([2]; 100 mg per kg per day p.o.): -42.9%
- Tibial Breaking Strain (Right + Left) % change ([2]; 100 mg per kg per day p.o.): -0.3%
- Tibial Breaking Strain (Right + Left) Mean ([2]; 100 mg per kg per day p.o.): 6.7 kg
- Total Cell Count ([2]; 100 mg per kg per day p.o.): 109.1 ×10^6
- Total Cell Count % change ([2]; 100 mg per kg per day p.o.): -15.7%
- Total MN ([2]; 100 mg per kg per day p.o.): 7.5 ×10^6
- Total MN % change ([2]; 100 mg per kg per day p.o.): -26.7%
- Total PMN ([2]; 100 mg per kg per day p.o.): 101.6 ×10^6
- Total PMN % change ([2]; 100 mg per kg per day p.o.): -14.7%
- % reduction of granuloma K+ ([3]; 15 mg.kg^-1 p.o.): -6.9%
- % reduction of granuloma Na+ ([3]; 15 mg.kg^-1 p.o.): 14.5%
- % reduction of granuloma Wet weight ([3]; 15 mg.kg^-1 p.o.): 15.1%
- % reduction of granuloma K+ ([3]; 45 mg.kg^-1 p.o.): 0.8%
- % reduction of granuloma Na+ ([3]; 45 mg.kg^-1 p.o.): 11%
- % reduction of granuloma Wet weight ([3]; 45 mg.kg^-1 p.o.): 10.8%
